Literature values in patent US20090068264A1, “Clinical Applications of Tetrahydrobiopterin, Lipoic Acid and Their Salts and Methods of Preparing Tetrahydrobiopterin Bis-Lipoate” (ChronoRX LLC, priority 2005, published 2009).

Test system: cerebral ischemia-reperfusion
Settings: animal studies of cerebral ischemia; after LA pretreatment; reduced from 78% without pretreatment

O=C(O)CCCCC1CCSS1 (stereo not shown) [LA, 1,2-dithiolane-3-pentanoic acid]
mortality rate during 24 hours of reperfusion: 26%
